In patent US6713445B1, “Peptides for treatment of HIV infection” (Advanced Immuni T, Inc., priority 1998, dated 2004):
Where a SMILES comes first, the peptide text is derived from it.

Tested on: GP120-Mediated Neurotoxicity
Test: Neuronal survival assay with 1 pM gp120 (count of neuron-specific enolase positive cells)
Format: cell-based
Settings: together with 1 pM gp120 (RF isolate), primary cultures of mixed rat neurons glia; for inhibition of neuronal death caused by gp120 (in words): dose-dependent; for protection against gp120 neuronal death: peptide at 10 μM
Source text: Materials: A gp120 isolate RFII was obtained from Dr. P. Nara, NCI, NIH. All of the gp120's are purified, >95% homogeneous and previously tested for neurotoxicity with cultured neurons and were used at 1 pM final concentration in cultures of neurons. Peptides of the formula Ile-Lys-Glu-Tyr-Phe-Thr-Ser (SEQ. ID NO: 2), Ile-Lys-Glu-Tyr-Phe (SEQ. ID NO: 3), and Leu-Glu-Ser-Tyr-Thr (SEQ. ID NO: 1), were obtained from Peninsula Labs, CA. and synthesized by solid-phase Merrified methods and purified to greater than 95% homogeneity by two HPLC methods and structure confirmed by MASS Spectroscopy Analysis.
Neuronal cell culture: Dissociated hippocampal cultures are prepared from neonatal (day 2) rat cortex and hippocampus by known methods. Sterilely dissected brain tissue is minced and treated with 0.125% trypsin for 30 minutes then gently triturated with fire-polished Pasteur pipes and plated in six-well trays (35 mm^2) at low density (50,000 cells/35 mm^2 dish) upon confluent layers of astrocytes in medium containing D-MEM, penicillin (25 U/ml), streptomycin ([…]), D-glucose (0.6%), and 10% heat-inactivated fetal calf serum (HyClone Laboratories), supplemented with insulin, transferrin, selenium, corticosterone, and triiodothyronine. Medium is changed after 3 days. At 6 days, half the medium is exchanged for fresh medium. The astrocyte feeder layers were prepared from the cortexes of neonatal rats following dissection and trituration. Plating was 2.5×10^2 cells per well. Feeder layers were grown in Eagles's minimal essential medium (Formula No. 82-0234DJ, Gibco) with 10% fetal calf serum until confluent (7-14 days). With this medium the feeder cultures were free of neurons and consisted of flat cells that were stained by antibodies to glial fibrillary acidic protein, a standard immunocytochemical marker for astroglia. When hippocampal or cortical cells were added to the confluent feeder layer, the medium was changed to the following composition: 5% horse serum and MEM supplement with defined medium components. The hippocampal or cortical cultures were treated with 5′-fluoro-2′-deoxyuridine (15 ug/ml plus uridine, 35 ug/ml) to suppress the overgrowth of background cells and allow the establishment of neurons. The neurons in these cultures are post-mitotic. The neuronal cultures were allowed to grow for 1 week prior to the beginning of the experimental period. Before treating the cultures, a complete change of medium was given.
Neuronal survival assay: GP120's, with or without added peptides, were diluted in phosphate buffered saline and added to the cultures, which were treated only once for a four day period. At termination, cultures were fixed with glutaraldehyde as previously described. At the end of the test period, neuronal survival was assessed by immunohistochemical detection of neuron-specific enolase positive cells (neurons). Cultures were counted in a blinded fashion without knowledge of sample treatment in 40 fields at pre-determined coordinate locations. The total area counted is 50 mm^2. Each value reported is the mean±the standard error of 3-4 determinations. Control (saline treated) wells from these cultures have 395±20 neurons. Statistical comparisons between experimental and control culture neuronal cell counts are via analysis of variance with the Student-Newman-Kuels multiple comparison of means test.
The dotted line in FIG. 1 represents the mean number of neurons in control cultures.

| Molecule | inhibition of neuronal death caused by gp120 (in words) | protection against gp120 neuronal death | EC50 (read-out: EC50 for preventing neuronal loss caused by gp120, four day period) |
| --- | --- | --- | --- |
| CC[C@H](C)[C@H](N)C(=O)N[C@@H](CCCCN)C(=O)N[C@@H](CCC(=O)O)C(=O)N[C@@H](Cc1ccc(O)cc1)C(=O)N[C@@H](Cc1ccccc1)C(=O)N[C@H](C(=O)N[C@@H](CO)C(=O)O)[C@@H](C)O [IKEYFTS, Ile-Lys-Glu-Tyr-Phe-Thr-Ser] (H-IKEYFTS-OH; N-terminus and C-terminus assumed) | preventing neuronal loss | fully protective | 100 nM |
| Ile-Lys-Glu-Tyr-Phe (IKEYF; mammalian) [shorter pentapeptide used to show specificity] | inactive | – | – |
| Leu-Glu-Ser-Tyr-Thr (LESYT; mammalian) | preventing neuronal loss | partially protective | – |
